Assay results taken from publication PMC10980815, “Cell surface patching via CXCR4-targeted nanothreads for cancer metastasis inhibition” (Nature Communications, 2024).
Several values for one entry are separate records, joined by “and”; a condition that tells them apart may be missing. Identical values can stand only once. Ends that are not written are not given here.

Tests used:
LOX = LOX ELISA (intra-tumoral, serum, pulmonary); format: in vivo, female BALB/c mice; parameters: Pulmonary LOX: unit not given beside the values; Intratumoral LOX / Systemic LOX: unit not given here; details: for Systemic LOX: serum
Method: 4T1 cells (1 × 10^6 cells) were injected into the third mammary fat pad of female BALB/c mice (6–8-week). […] On day 28, blood samples, lungs and tumors were harvested.
To explore the “seed-soil” crosstalk, the serum, intra-tumoral, and pulmonary concentration of LOX was determined using enzyme-linked immunosorbent assay kits (CSB-EL013041MO, CUSABIO, https://www.cusabio.com/) according to the manufacturer’s instructions. The serum, intra-tumoral, and pulmonary concentration of TGF-β was determined using mouse TGF-β ELISA Kit (Cat No.: HB1328-Mu). The formation of PMN was investigated through lung slices subjected to immunofluorescent staining of LOX, E-cadherin, and S100A8. For immunofluorescent staining of E-cadherin, Lung slices were stained with CoraLite® Plus 647 anti-mouse CD324 (E-cadherin, 1:300 dilution). For immunofluorescent staining of LOX and S100A8, Lung slices were separately stained with anti-LOX recombinant rabbit monoclonal antibody (1:500 dilution) or S100-A8 / MRP8 rabbit pAb (1:500 dilution), followed by staining with goat anti-rabbit IgG H&L Alexa Fluor® 647 (1:1000 dilution), respectively. Single-cell suspensions of lungs were analyzed using flow cytometry to assess BMDC (CD11b^+Gr1^+) with PE anti-mouse/human CD11b antibody (1:300 dilution) and FITC anti-mouse Ly-6G/Ly-6C (Gr-1) antibody (1:300 dilution). Chemokine concentrations in lungs were determined using a mouse CXCL12 ELISA kit.

4T1 cells [1] = assay: Wound healing assay; format: cell-based, murine; details: stimulated 4T1 cells; individual replicates, n = 3
Method: (§1) Wound healing assay and transwell migration and invasion assay were conducted to investigate in vitro metastasis inhibition. For the wound healing assay, 4T1 cells (5 × 10^5 cells) were cultured in 12-well plates (NEST Biotechnology) as monolayer with more than 90% coverage. Sterile 200 μL pipette tips were used to scrape off the cells, generating a linear cell-free area in the middle of the well. Subsequently, cells were washed by PBS to remove debris. In the stimulated group, 4T1 cells were stimulated with CXCL12 (100 ng/mL) for 1 h. […] In the P-BS-CM1 → P-CM2 group, 4T1 cells underwent consecutive treatment with P-BS-CM1 for 1 h and P-CM2 for 1 h before CXCL12 stimulation (1 mg/mL BS equivalence, CM1:CM2, 1:1 mol%). Images of the wound were recorded by a microscope at 0 h and 24 h after CXCL12 stimulation, and the wound healing rate was calculated using Image J software. For the transwell migration and invasion assay, 4T1 cells (5 × 10^5 cells) were seeded in the non-coated upper chamber (Millipore, 8 μm) or GelNest™ matrigel (NEST Biotechnology) pre-coated upper chamber. The cells underwent the same treatment conditions as wound healing assay. After 24 h of treatment, migrated or invaded cells across the membrane were stained with 0.1% crystal violet, imaged by microscope, and quantified by absorbance at 570 nm after dissolution.

4T1 cells [2] = assay: Transwell migration assay; format: cell-based, murine; details: stimulated 4T1 cells; individual replicates, n = 3
Method: as §1

Row | Substance | Intratumoral LOX (LOX; replicate 1) | Pulmonary LOX (LOX; replicate 1) | Intratumoral LOX (LOX; replicate 2) | Pulmonary LOX (LOX; replicate 2) | Intratumoral LOX (LOX; replicate 3) | Pulmonary LOX (LOX; replicate 3) | Intratumoral LOX (LOX; replicate 4) | Pulmonary LOX (LOX; replicate 4) | Intratumoral LOX (LOX; replicate 5) | Pulmonary LOX (LOX; replicate 5) | Systemic LOX (LOX; replicate 1) | Systemic LOX (LOX; replicate 2) | Systemic LOX (LOX; replicate 3) | Systemic LOX (LOX; replicate 4) | Systemic LOX (LOX; replicate 5) | Wound healing rate (%) (4T1 cells [1]) | Migration content (%) (4T1 cells [2])
1 | LGASWHRPDKCCLGYQKRPLPA [Free BS] | 4.19 | 254.76 | 4.18 | 210.31 | 5.17 | 211.1 | 5.44 | 280.17 | 4.81 | 276.43 | 127.4 | 132.76 | 133.61 | 151.3 | 147.4 | 89.21% and 80.06% and 77.11% | 99.141% and 98.012% and 94.753%
2 | P-BS: HPMA copolymer-BS conjugate, ~6 BS grafts per polymer (LGASWHRPDKCCLGYQKRPLPA; not fully specified (residues 11, 12); also: about 6 peptides grafted on HPMA copolymer via cysteine-maleimide thioether links) | 3.43 | 195.4 | 2.08 | 174.61 | 1.87 | 154.51 | 2.69 | 156.3 | 2.96 | 144.2 | 76.42 | 77.13 | 91.2 | 85.1 | 105.1 | 50.0872% and 55.1712% and 60.2636% | 52.3% and 41.02% and 47.1%
